# Molecular target: human PAD4 (hPAD4) (Homo sapiens (Human), UniProt Q9UM07)
# Assay: RFMS Human PAD4 Functional Assay 1
# Type: biochemical
# Details: RFMS assay 1; 5 nM hPAD4, 250 μM BAEE substrate, 50 μM calcium, 37° C.
# Method in brief: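 Recombinant hPAD4 (5 nM) was preincubated with compound (top 50 μM, 0.5% DMSO) for 30 min at 37 °C, then reacted with 250 μM BAEE for 90 min at 37 °C in pH 7.5 HEPES buffer with 50 μM calcium and 5 μM TPEN. Product was derivatized with phenyl glyoxal and quantified by RapidFire MS.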
# Sequence of human PAD4 (hPAD4) (Q9UM07 whole entry): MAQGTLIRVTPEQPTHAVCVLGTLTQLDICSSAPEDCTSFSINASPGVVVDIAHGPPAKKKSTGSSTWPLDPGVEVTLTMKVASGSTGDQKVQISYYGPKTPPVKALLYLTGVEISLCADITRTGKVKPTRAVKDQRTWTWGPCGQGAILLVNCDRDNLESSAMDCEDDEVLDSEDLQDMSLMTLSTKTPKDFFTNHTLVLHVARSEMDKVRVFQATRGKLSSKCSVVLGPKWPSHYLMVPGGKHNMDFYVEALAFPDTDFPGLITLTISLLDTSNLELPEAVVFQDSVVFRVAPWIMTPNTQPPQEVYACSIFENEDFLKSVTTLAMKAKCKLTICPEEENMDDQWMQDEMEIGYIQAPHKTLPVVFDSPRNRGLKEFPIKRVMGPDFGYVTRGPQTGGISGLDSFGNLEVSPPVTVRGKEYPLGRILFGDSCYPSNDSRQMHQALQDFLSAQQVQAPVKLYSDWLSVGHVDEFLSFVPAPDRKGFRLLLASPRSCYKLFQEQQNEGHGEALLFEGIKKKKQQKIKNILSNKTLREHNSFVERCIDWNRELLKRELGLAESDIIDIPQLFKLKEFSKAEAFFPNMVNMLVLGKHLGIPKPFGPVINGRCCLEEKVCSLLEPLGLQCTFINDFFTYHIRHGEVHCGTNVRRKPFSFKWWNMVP
row,SMILES,IC50 [nM]
1,"Cc1c(-c2cc3ccc(-c4ccc(C(N)=O)c(Cl)c4)cc3n2CC2CC2)oc2cc(C(=O)N3CC4CCC3[C@@H]4N)ccc12 (stereo partly drawn) [Example 183, 4-(2-(6-((7R)-7-Amino-2-azabicyclo[2.2.1]heptane-2-carbonyl)-3-methylbenzofuran-2-yl)-1-(cyclopropylmethyl)-1H-indol-6-yl)-2-chlorobenzamide]",88
2,"Cc1ccc2cc(-c3oc4cc(C(=O)N5CC6CCC5[C@@H]6N)ccc4c3C)n(CC3CC3)c2c1 (stereo partly drawn) [Example 184, ((7R)-7-Amino-2-azabicyclo[2.2.1]heptan-2-yl)(2-(1-(cyclopropylmethyl)-6-methyl-1H-indol-2-yl)-3-methylbenzofuran-6-yl)methanone]",50
3,"Cc1c(-c2cc3ccc(-c4ccc(C(N)=O)c(F)c4)cc3n2CC2CC2)oc2cc(C(=O)N3CC4CCC3[C@@H]4N)ccc12 (stereo partly drawn) [Example 185, 4-(2-(6-((7R)-7-Amino-2-azabicyclo[2.2.1]heptane-2-carbonyl)-3-methylbenzofuran-2-yl)-1-(cyclopropylmethyl)-1H-indol-6-yl)-2-fluorobenzamide]",25
4,"COc1cc(-c2ccc3cc(-c4oc5cc(C(=O)N6CC7CCC6[C@@H]7N)ccc5c4C)n(CC4CC4)c3c2)ccn1 (stereo partly drawn) [Example 186, ((7R)-7-Amino-2-azabicyclo[2.2.1]heptan-2-yl)(2-(1-(cyclopropylmethyl)-6-(2-methoxypyridin-4-yl)-1H-indol-2-yl)-3-methylbenzofuran-6-yl)methanone]",56
5,"Cc1c(-c2cc3ccc(C4CC4)cc3n2CC2CC2)oc2cc(C(=O)N3CC4CCC3[C@@H]4N)ccc12 (stereo partly drawn) [Example 187, ((7R)-7-Amino-2-azabicyclo[2.2.1]heptan-2-yl)(2-(6-cyclopropyl-1-(cyclopropylmethyl)-1H-indol-2-yl)-3-methylbenzofuran-6-yl)methanone]",1550
6,"Cc1cc(-c2ccc3cc(-c4oc5cc(C(=O)N6CC7CCC6[C@@H]7N)ccc5c4C)n(CC4CC4)c3c2)cnc1C(N)=O (stereo partly drawn) [Example 188, 5-(2-(6-((7R)-7-Amino-2-azabicyclo[2.2.1]heptane-2-carbonyl)-3-methylbenzofuran-2-yl)-1-(cyclopropylmethyl)-1H-indol-6-yl)-3-methylpicolinamide]",81
7,"COC1CCN(c2ccc3cc(-c4oc5cc(C(=O)N6CC7CCC6[C@@H]7N)ccc5c4C)n(CC4CC4)c3c2)CC1 (stereo partly drawn) [Example 189, ((7R)-7-Amino-2-azabicyclo[2.2.1]heptan-2-yl)(2-(1-(cyclopropylmethyl)-6-(4-methoxypiperidin-1-yl)-1H-indol-2-yl)-3-methylbenzofuran-6-yl)methanone]",30
8,"COC1CN(c2ccc3cc(-c4oc5cc(C(=O)N6CC7CCC6[C@@H]7N)ccc5c4C)n(CC4CC4)c3c2)C1 (stereo partly drawn) [Example 190, ((7R)-7-Amino-2-azabicyclo[2.2.1]heptan-2-yl)(2-(1-(cyclopropylmethyl)-6-(3-methoxyazetidin-1-yl)-1H-indol-2-yl)-3-methylbenzofuran-6-yl)methanone]",58
9,"Cc1c(-c2cc3ccc(N4CCC(N)CC4)cc3n2CC2CC2)oc2cc(C(=O)N3CC4CCC3[C@@H]4N)ccc12 (stereo partly drawn) [Example 191, ((7R)-7-Amino-2-azabicyclo[2.2.1]heptan-2-yl)(2-(6-(4-aminopiperidin-1-yl)-1-(cyclopropylmethyl)-1H-indol-2-yl)-3-methylbenzofuran-6-yl)methanone]",20
10,"Cc1c(-c2cc3ccc(N4CCNCC4)cc3n2CC2CC2)oc2cc(C(=O)N3CC4CCC3[C@@H]4N)ccc12 (stereo partly drawn) [Example 192, ((7R)-7-Amino-2-azabicyclo[2.2.1]heptan-2-yl)(2-(1-(cyclopropylmethyl)-6-(piperazin-1-yl)-1H-indol-2-yl)-3-methylbenzofuran-6-yl)methanone]",93
11,"Cc1c(-c2cc3ccc(N4CCNCC4=O)cc3n2CC2CC2)oc2cc(C(=O)N3CC4CCC3[C@@H]4N)ccc12 (stereo partly drawn) [Example 193, 1-(2-(6-((7R)-7-Amino-2-azabicyclo[2.2.1]heptane-2-carbonyl)-3-methylbenzofuran-2-yl)-1-(cyclopropylmethyl)-1H-indol-6-yl)piperazin-2-one]",334
12,"Cc1c(-c2cc3ccccc3n2CC2CC2)oc2cc(C(=O)N3C[C@H](N)C[C@@H](F)C3)ccc12 [Example 194, ((3R,5R)-3-Amino-5-fluoropiperidin-1-yl)(2-(1-(cyclopropylmethyl)-1H-indol-2-yl)-3-methylbenzofuran-6-yl)methanone]",1800
13,"Cc1c(-c2cc3ccc(-c4ccc5c(c4)CNC5=O)cc3n2CC2CC2)oc2cc(C(=O)N3C[C@H](N)C[C@@H](F)C3)ccc12 [Example 195, 5-(2-(6-((3R,5R)-3-Amino-5-fluoropiperidine-1-carbonyl)-3-methylbenzofuran-2-yl)-1-(cyclopropylmethyl)-1H-indol-6-yl)isoindolin-1-one]",363
14,"Cc1c(-c2cc3ccc(-c4ccc(C(N)=O)c(F)c4)cc3n2CC2CC2)oc2cc(C(=O)N3C[C@H](N)C[C@@H](F)C3)ccc12 [Example 196, 4-(2-(6-((3R,5R)-3-Amino-5-fluoropiperidine-1-carbonyl)-3-methylbenzofuran-2-yl)-1-(cyclopropylmethyl)-1H-indol-6-yl)-2-fluorobenzamide]",384
15,"Cc1c(-c2cc3ccc(-c4ccn5c(C)nnc5c4)cc3n2CC2CC2)oc2cc(C(=O)N3C[C@H](N)C[C@@H](F)C3)ccc12 [Example 197, ((3R,5R)-3-Amino-5-fluoropiperidin-1-yl)(2-(1-(cyclopropylmethyl)-6-(3-methyl-[1,2,4]triazolo[4,3-a]pyridin-7-yl)-1H-indol-2-yl)-3-methylbenzofuran-6-yl)methanone]",317
16,"Cc1c(-c2cc3ccc(-c4cccc(O)c4F)cc3n2CC2CC2)oc2cc(C(=O)N3C[C@H](N)C[C@@H](F)C3)ccc12 [Example 198, ((3R,5R)-3-Amino-5-fluoropiperidin-1-yl)(2-(1-(cyclopropylmethyl)-6-(2-fluoro-3-hydroxyphenyl)-1H-indol-2-yl)-3-methylbenzofuran-6-yl)methanone]",3260
17,"Cc1c(-c2cc3ccc(-c4ccc(C(N)=O)c(Cl)c4)cc3n2CC2CC2)oc2cc(C(=O)N3C[C@H](N)C[C@@H](F)C3)ccc12 [Example 199, 4-(2-(6-((3R,5R)-3-Amino-5-fluoropiperidine-1-carbonyl)-3-methylbenzofuran-2-yl)-1-(cyclopropylmethyl)-1H-indol-6-yl)-2-chlorobenzamide]",3360
18,"Cc1c(-c2cc3ccc(N4CCNCC4)cc3n2CC2CC2)oc2cc(C(=O)N3C[C@H](N)C[C@@H](F)C3)ccc12 [Example 201, ((3R,5R)-3-Amino-5-fluoropiperidin-1-yl)(2-(1-(cyclopropylmethyl)-6-(piperazin-1-yl)-1H-indol-2-yl)-3-methylbenzofuran-6-yl)methanone]",1970
19,"Cc1c(-c2cc3ccc(N4CCC(N)CC4)cc3n2CC2CC2)oc2cc(C(=O)N3C[C@H](N)C[C@@H](F)C3)ccc12 [Example 202, ((3R,5R)-3-Amino-5-fluoropiperidin-1-yl)(2-(6-(4-aminopiperidin-1-yl)-1-(cyclopropylmethyl)-1H-indol-2-yl)-3-methylbenzofuran-6-yl)methanone]",1060
20,"COc1cc(C(=O)N2CC3CCC2[C@@H]3N)cc2oc(-c3cc4ccc(C(C)(C)O)nc4n3CC3CC3)c(C)c12 (stereo partly drawn) [Example 203, ((7R)-7-Amino-2-azabicyclo[2.2.1]heptan-2-yl)(2-(1-(cyclopropylmethyl)-6-(2-hydroxypropan-2-yl)-1H-pyrrolo[2,3-b]pyridin-2-yl)-4-methoxy-3-methylbenzofuran-6-yl)methanone]",12
21,"Cc1c(-c2cc3ccc(C(C)(C)O)cc3n2CC2CC2)oc2cc(C(=O)N3CC4CCC3[C@@H]4N)ccc12 (stereo partly drawn) [Example 204, ((7R)-7-Amino-2-azabicyclo[2.2.1]heptan-2-yl)(2-(1-(cyclopropylmethyl)-6-(2-hydroxypropan-2-yl)-1H-indol-2-yl)-3-methylbenzofuran-6-yl)methanone]",39
22,"COc1cc(C(=O)N2CC3CCC2[C@@H]3N)cn2nc(-c3cc4ccc(-c5ccccc5N5CCNC5=O)nc4n3CC3CC3)c(C)c12 (stereo partly drawn) [Example 205, 1-[2-(2-{6-[(7R)-7-Amino-2-azabicyclo[2.2.1]heptane-2-carbonyl]-4-methoxy-3-methylpyrazolo[1,5-a]pyridin-2-yl}-1-(cyclopropylmethyl)-1H-pyrrolo[2,3-b]pyridin-6-yl)phenyl]imidazolidin-2-one]",60
23,"COc1cc(C(=O)N2CC3CCC2[C@@H]3N)cn2nc(-c3cc4ccc(-c5ccc(C(N)=O)c(C)c5)nc4n3CC3CC3)c(C)c12 (stereo partly drawn) [Example 206, 4-(2-{6-[(7R)-7-Amino-2-azabicyclo[2.2.1]heptane-2-carbonyl]-4-methoxy-3-methylpyrazolo[1,5-a]pyridin-2-yl}-1-(cyclopropylmethyl)-1H-pyrrolo[2,3-b]pyridin-6-yl)-2-methylbenzamide]",70
24,"COc1cc(C(=O)N2C[C@H](N)C[C@@H](F)C2)cn2nc(-c3cc4ccc(-c5ccccc5CO)cc4n3CC3CC3)c(C)c12 [Example 209, [2-(2-{6-[(3R,5R)-3-Amino-5-fluoropiperidine-1-carbonyl]-4-methoxy-3-methylpyrazolo[1,5-a]pyridin-2-yl}-1-(cyclopropylmethyl)-1H-indol-6-yl)phenyl]methanol]",1080
25,"COc1cc(C(=O)N2C[C@H](N)C[C@@H](F)C2)cn2nc(-c3cc4ccc(-c5cccc(CO)c5)cc4n3CC3CC3)c(C)c12 [Example 210, [3-(2-{6-[(3R,5R)-3-Amino-5-fluoropiperidine-1-carbonyl]-4-methoxy-3-methylpyrazolo[1,5-a]pyridin-2-yl}-1-(cyclopropylmethyl)-1H-indol-6-yl)phenyl]methanol]",490

# — patent US12473304B2, “Heterocyclic PAD4 inhibitors” (BRISTOL-MYERS SQUIBB COMPANY, priority 2020, dated 2025)
